Laboratory results published in article PMC2217675, “Quantitative High-Throughput Screen Identifies Inhibitors of the Schistosoma mansoni Redox Cascade” (PLoS Neglected Tropical Diseases, 2008).
Where two headings read alike, the source gives them in different places.

Key:
Assay in all cases: biochemical
S. mansoni TGR/Prx2 [1] = biological target: T1, S. mansoni TGR/Prx2 (Schistosoma mansoni, UniProt Q962Y6)
T1 sequence (Q962Y6 1-598): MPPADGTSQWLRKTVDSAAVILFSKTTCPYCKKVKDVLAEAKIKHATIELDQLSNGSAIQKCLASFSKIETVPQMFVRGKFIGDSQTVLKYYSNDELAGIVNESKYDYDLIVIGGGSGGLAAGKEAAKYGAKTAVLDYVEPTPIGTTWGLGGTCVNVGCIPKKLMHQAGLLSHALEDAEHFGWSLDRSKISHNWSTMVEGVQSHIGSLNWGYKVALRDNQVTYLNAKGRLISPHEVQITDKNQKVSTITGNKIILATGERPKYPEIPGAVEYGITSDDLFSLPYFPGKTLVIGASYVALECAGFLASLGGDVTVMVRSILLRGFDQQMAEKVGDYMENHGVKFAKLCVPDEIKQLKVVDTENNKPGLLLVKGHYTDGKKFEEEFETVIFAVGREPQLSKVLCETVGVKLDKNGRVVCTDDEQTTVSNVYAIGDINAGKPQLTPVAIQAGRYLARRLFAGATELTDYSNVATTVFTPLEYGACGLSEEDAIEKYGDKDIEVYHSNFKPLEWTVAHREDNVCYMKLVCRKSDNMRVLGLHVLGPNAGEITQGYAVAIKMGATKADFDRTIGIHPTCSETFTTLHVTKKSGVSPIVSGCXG

TGR = biological target: T2, TGR (Schistosoma mansoni, UniProt Q962Y6)
T2 sequence (Q962Y6 1-598): T1 sequence (Q962Y6 1-598)

S. mansoni TGR/Prx2 [2] = biological target: T1, S. mansoni TGR/Prx2; format: biochemical
[3] = initial high throughput screen of the collection, 25 nM TGR, 50 nM Prx2, read-out: qHTS IC50
[4] = DTNB as substrate, 15 nM TGR, read-out: TGR Assay IC50

Structure (SMILES) | IC50 (S. mansoni TGR/Prx2 [1]) [nM] | IC50 (TGR) [nM] | also measured
CCOc1ccc(OP2(=O)NC(=O)C=C(C)N2)cc1 (centres unmarked) [compound 16] | 180 | 600 | –
CC1=CC(=O)NP(=O)(Oc2ccc(Cl)cc2)N1 (centres unmarked) [compound 13] | 420 | 550 | –
N#Cc1c(-c2ccccc2)no[n+]1[O-] [compound 9] | – | 1800 | IC50 (S. mansoni TGR/Prx2 [2]): 8700 nM
CCOC(=O)C(C(=O)OCC)c1cc(Br)c2noc3c2c1C(=O)c1ccccc1-3 [compound 10] | > 57000 | 9000 | IC50 (S. mansoni TGR/Prx2 [2]): 530 nM
O=C(c1cccs1)c1no[n+]([O-])c1C(=O)c1cccs1 [compound 7] | 1500 | – | IC50 (S. mansoni TGR/Prx2 [2]; [3]): 9200 nM; IC50 (TGR; [4]): 20 nM
COc1ccc(C(=O)c2no[n+]([O-])c2C(=O)c2ccc(OC)cc2)cc1 [compound 8] | 4700 | – | IC50 (S. mansoni TGR/Prx2 [2]; [3]): 10000 nM; IC50 (TGR; [4]): 60 nM
CCCCOc1cc(Br)c2noc3c2c1C(=O)c1ccccc1-3 [compound 12] | – | – | IC50 (S. mansoni TGR/Prx2 [1]; read-out: Confirmation IC50): 840 nM; IC50 (TGR; [4]): 150 nM
O=P(Nc1ccccc1F)(c1ccccc1)c1nc2ccccc2s1 (centres unmarked) [compound 2] | 23000 | 12000 | –
CC1=CC(=O)NP(=O)(Oc2ccccc2)N1 (centres unmarked) [compound 15] | 2000 | 4000 | –
O=C(c1ccco1)c1no[n+]([O-])c1C(=O)c1ccco1 [compound 5] | 1500 | 25 | –
O=C([O-])[C@H]([O-])[C@@H]([O-])C(=O)[O-].O=C([O-])[C@H]([O-])[C@@H]([O-])C(=O)[O-].[K+].[K+].[Sb+3].[Sb+3] [PAT, potassium antimonyl tartrate, reference compound] | – | – | IC50 (S. mansoni TGR/Prx2 [2]; read-out: average IC50 of intraplate control titration): 14 ± 8 nM
COC(=O)C(C(=O)OC)c1cc(Br)c2noc3c2c1C(=O)c1ccccc1-3 [compound 11] | 120 | 80 | –
CC1COc2c(N3CCN(C)CC3)c(F)cc3c(=O)c(C(=O)O)cn1c23 (centres unmarked) [Ofloxacin, reference compound] | – | – | activity in qHTS (S. mansoni TGR/Prx2 [2]; primary screen): apparent activator
Cc1nn(C)cc1C(=O)c1no[n+]([O-])c1C(=O)c1cn(C)nc1C [compound 6] | – | – | IC50 (S. mansoni TGR/Prx2 [2]; [3]): 24000 nM; IC50 (TGR; [4]): 2000 nM
